Reference: ChEMBL document CHEMBL1141949, “In silico fragment-based discovery of indolin-2-one analogues as potent DNA gyrase inhibitors” (Bioorg Med Chem Lett, 2005)

The compounds below were run against DNA gyrase (Escherichia coli) (UniProt P0AES6+P0AES4) (assay: In vitro activity against Escherichia coli DNA gyrase supercoiling).
Format: protein-complex assay

Compound | MNEC [µM]
O=C1Nc2ccccc2/C1=C/c1c[nH]c(-c2ccccc2)n1 | > 100
O=C1Nc2ccccc2/C1=C/c1cccnc1 | > 100
O=C1Nc2ccccc2/C1=C/c1ccc([N+](=O)[O-])cc1 | > 100
O=C1Nc2ccccc2/C1=C/c1c[nH]nc1-c1cccs1 | > 100
Cc1[nH]c2ccccc2c1/C=C1\C(=O)Nc2ccccc21 | > 100
Oc1[nH]c2ccccc2c1/N=N/c1n[nH]c2c3ccccc3nc-2n1 | > 100
O=C1Nc2ccccc2/C1=C/c1c[nH]c2cc([N+](=O)[O-])ccc12 | > 100
CCCCc1nc(/C=C2\C(=O)Nc3ccccc32)c[nH]1 | 50
CCc1nc(/C=C2\C(=O)Nc3ccccc32)c[nH]1 | < 100
Cc1ccc2c(c1)/C(=N/N=C/c1c(O)ccc3ccccc13)C(=O)N2 | > 100
CCc1nc(C)c(/C=C2\C(=O)Nc3ccccc32)[nH]1 | 25
O=C1Nc2ccccc2/C1=C/c1cnc[nH]1 | 100
O=C1N=C(N2CCOCC2)S/C1=C1\C(=O)Nc2ccccc21 | > 100
O=C1Nc2ccccc2/C1=C/c1ccccc1N1CCOCC1 | > 100
O=C(/N=N/c1c(O)[nH]c2ccc(Br)cc12)c1ccncc1 | > 100
O=C1Nc2ccccc2/C1=N/c1ccc(C(F)(F)F)cc1 | > 100
